From patent publication US20240091217A1, “STABLE PHARMACEUTICAL ORAL LIQUID FORMULATION OF AN ANTISPASMODIC AGENT” (priority 2022, published 2024)

Experiments:
[1] = Solubilizing Drotaverine HCl in dispersion media of sorbitol liquid, glycerin and water, storage; assay type: physicochemical; conditions: glycerin, water 1:1:1 to 3:2:1, no stabilizing agent
Text: The inventors of the present disclosure tried solubilizing Drotaverine HCl in a ratio of dispersion media containing sorbitol liquid, glycerin, and water ranging from 1:1:1 to 3:2:1, respectively. […] To obtain a physically and chemically stable product with good shelf life, the present inventors resolved this precipitation of Drotaverine in the proposed dispersion media. In order to avoid the precipitation of Drotaverine, the present inventors added a stabilizing agent to the dispersion media.

[2] = cited from earlier work
[3] = Degradation of Drotaverine HCl under stress conditions; assay type: physicochemical; conditions: alkaline medium, higher oxidative stress conditions, presence of light
Text: In some embodiments, the disclosed formulations employ very few excipients, all of which are completely safe for pediatric patients, economical, and readily available.

[4] = cited from earlier work; remark: listed apart in the source

## CCOc1ccc(C=C2NCCc3cc(OCC)c(OCC)cc32)cc1OCC [Drotaverine, 1-[(3,4-diethoxyphenyl)methylene]-6,7-diethoxy-1,2,3,4-tetrahydroisoquinoline]
[1]
  precipitation on storage: re-precipitated on storage
[2]
  oral LD50: > 1000 mg/Kg body weight
[3]
  degradation: degrades extensively
[4]; after oral administration of 80 mg strength IR tablets
  onset of action: ≤ 12 min
[4]; humans, Drotaverine IR tablets 80 mg
  renal clearance as share of the total plasma clearance: 0.31+/−0.13%
[4]; humans, oral, subject dependent
  Absolute bioavailability (range): 24.5-91%
[4]; humans, oral
  Absolute bioavailability, mean (mean+/-SD): 58.2+/−18.2%
